# Test results published in ChEMBL document CHEMBL4725230, “Syntheses and pharmacokinetic evaluations of four metabolites of 2-(4-(2-((1H-benzo[d]imidazol-2-yl)thio)ethyl)piperazin-1-yl)-N-(6-methyl-2,4-bis-(methylthio)pyridin-3-yl)acetamide hydrochloride [K-604], an acyl-CoA:cholesterol O-acyltransferase-1 inhibitor” (Bioorg Med Chem, 2020).
# Test: Retention time of the compound in human liver microsomes after 5 mins in presence of NADPH by LC-MS/MS analysis
# Type: ADME, Microsome
row,Retention_time [min],SMILES
1,2.73,CSc1cc(C)nc([S+](C)[O-])c1NC(=O)CN1CCN(CCSc2nc3ccccc3[nH]2)CC1 (configuration not stated)
2,3.21,CSc1cc(C)nc(SC)c1NC(=O)CN1CCN(CCSc2nc3cc(O)ccc3[nH]2)CC1
